Assay in all cases: inhibition of tumour cell growth, NCI panel, 48 h
In assay [1] the test system is SF-268.
Assay [2] has as its system CCRF-CEM.
The subject of assay [3] is RXF 393.
Assay [4] deals with HL-60.
Assay [5] has as its system SW-620.
The test system of assay [6] is NCI-H460.
Assay [7] relates to T47D.
The test system of assay [8] is M14.
For assay [9], the system named is UACC-62.
The test system of assay [10] is SK-MEL-2.
Assay [11] has as its system U-251.
Assay [12] deals with Malme-3M.
The test system of assay [13] is BT-549.
Assay [14] deals with NCI-H23.
For assay [15], the system named is UACC-257.
Assay [16] concerns MOLT-4.
Assay [17] relates to MDA-MB-435.
The subject of assay [18] is SK-OV-3.
The test system of assay [19] is SF-539.
The subject of assay [20] is HCT-15.

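The compound was tested at five concentrations on cells cultured in 96-well plates, with a 48-hour exposure period. Here, GI50 denotes the concentration required for 50% inhibition of growth.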 The source made the active and inactive calls. Cut-off read from the data, not from the text of the source: active = GI50 up to about 1.1 µM and inactive = higher.

With `CCc1nc(N)nc(N)c1-c1ccc(N2CCNCC2)c([N+](=O)[O-])c1`, the GI50 was 9.29 µM (inactive) in assay [1]; 4.74 µM (inactive) in [2]; 24.5 µM (inactive) in assay [3]; 4.59 µM (inactive) in [4]; 5.4 µM (inactive) in assay [5]; 2.11 µM (inactive) in assay [6]. Also, the GI50 was 58.5 µM (inactive) in assay [7]; 7.08 µM (inactive) in [8]; 6.08 µM (inactive) in [9]; 36.9 µM (inactive) in [10]; 6.03 µM (inactive) in [11]; 15.5 µM (inactive) in [12]. The GI50 is 45.9 µM (inactive) in assay [13]; 7.85 µM (inactive) in assay [14]; 13.9 µM (inactive) in assay [15]; 5.65 µM (inactive) in assay [16]; 4.27 µM (inactive) in assay [17]; 91.2 µM (inactive) in [18]. Further, the GI50 in assay [19] is 10.6 µM (inactive); in [20] it was 35.7 µM.
`COc1cc2c3c(c1OC)-c1cc4c(cc1CC3(C#N)N(C(=O)c1ccccc1)CC2)OCO4` (stereo not given): the GI50 in assay [1] was 31.6 µM (inactive); in [2], > 100 µM (inactive); in assay [3] it was 8.73 µM (inactive); in assay [4], > 100 µM (inactive); in assay [5] it was 87.9 µM (inactive); in assay [6], 52.6 µM (inactive). The GI50 in assay [7] is > 100 µM (inactive); in [8] it was 54.2 µM (inactive); in assay [9], 16.4 µM (inactive); in assay [10] it was 46.6 µM (inactive); in [11], 21.1 µM (inactive); in assay [12] it was 35.3 µM (inactive). Moreover, the GI50 in [13] was > 100 µM (inactive); in assay [14] it was 25.5 µM (inactive); in assay [15] it was 60.4 µM (inactive); in assay [16] it was 68.4 µM (inactive); in assay [17], > 88.5 µM (inactive); in assay [18] it was 25.7 µM (inactive). Besides, the figures for the GI50 in assay [19] and in [20] were 17.7 µM (inactive) and > 100 µM, respectively.
With `CCC(c1nc2ccccc2c(=O)n1NC(=O)C(C)(C)C)C1(O)CCCCC1` (stereo not given), the GI50 in assay [1] was > 100 µM (inactive); in assay [2], 99.5 µM (inactive); in assay [3], > 100 µM (inactive); in [4], > 100 µM (inactive); in assay [5], > 100 µM (inactive); in [6], > 100 µM (inactive). The GI50 in assay [7], in assay [8], in [9], in assay [10], in assay [11] and in [12] was > 100 µM (inactive) throughout. For the same molecule, the GI50 was > 100 µM (inactive) in assay [13]; > 100 µM (inactive) in assay [14]; > 100 µM (inactive) in assay [15]; 80.4 µM (inactive) in [16]; > 100 µM (inactive) in assay [17]; > 100 µM (inactive) in [18]. The GI50 is > 100 µM (inactive) in [19] and > 100 µM in assay [20].
Turning to `Cc1cc(NS(=O)(=O)c2ccc(NC(NC(=O)C(C(F)(F)F)C(F)(F)F)(C(F)(F)F)C(F)(F)F)cc2)no1`, the GI50 in assay [1], in assay [2], in assay [3], in assay [4], in assay [5] and in assay [6] was > 100 µM (inactive) throughout. Moreover, the GI50 was > 100 µM (inactive) in assay [7]; 58.7 µM (inactive) in assay [8]; > 100 µM (inactive) in assay [9]; > 100 µM (inactive) in assay [10]; > 100 µM (inactive) in assay [11]; > 100 µM (inactive) in [12]. Also, the GI50 in assay [13] is > 100 µM (inactive); in [14], > 100 µM (inactive); in assay [15] it was > 100 µM (inactive); in assay [16], > 100 µM (inactive); in assay [17] it was > 100 µM (inactive); in assay [18] it was 1.96 µM (inactive). Also, the figures for the GI50 in [19] and in [20] were > 100 µM (inactive) and > 100 µM, respectively.
With `CCCCCCCCCCCCCCCCNc1ccn(C2CC(O)C(COC(c3ccccc3)(c3ccccc3)c3ccc(OC)cc3)O2)c(=O)n1` (stereo not given), the GI50 was > 100 µM (inactive) in [1]; 67.8 µM (inactive) in assay [2]; > 100 µM (inactive) in assay [3]; > 100 µM (inactive) in assay [4]; > 100 µM (inactive) in assay [5]; > 100 µM (inactive) in assay [6]. The GI50 is > 100 µM (inactive) in assay [7]; > 100 µM (inactive) in assay [8]; > 100 µM (inactive) in assay [9]; > 100 µM (inactive) in assay [10]; 64.1 µM (inactive) in [11]; > 100 µM (inactive) in [12]. Moreover, the GI50 in assay [13] is > 100 µM (inactive); in assay [14] it was > 100 µM (inactive); in assay [15], > 10 µM (inactive); in assay [16], 49.3 µM (inactive); in [17], > 100 µM (inactive); in assay [18], > 100 µM (inactive). Further, the GI50 in assay [19] is > 100 µM (inactive); in assay [20] it was > 100 µM.
